Experimental data: patent US11077090B2, “Compounds and compositions and uses thereof” (Sunovion Pharmaceuticals Inc., priority 2016, dated 2021)
Read-outs that look alike come from different tables or passages of the source.

Tested on: compound-treated mice
Test: Neuropharmacological assay (SmartCube): behavioral activity signature and minimal effective dose
Format: in vivo
Conditions: for minimal effective dose: Mus musculus, ip; for AD: ADHD (probability of activity signature) / AG: analgesic (probability of activity signature) / AX: anxiolytic (probability of activity signature) / CE: cognitive enhancer (probability of activity signature) / DP: anti-depressant (probability of activity signature) / MS: mood stabilizer (probability of activity signature) / PS: anti-psychotic (probability of activity signature) / SD: sedative hypnotic (probability of activity signature) / UN: uncharacterized CNS activity (probability of activity signature): i.p. 15 min before test, most efficacious dose(s)
Method in brief: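 Video-recorded behavior is compared algorithmically against a reference-compound database, yielding class probabilities (best dose reported). Compounds given i.p. in NMP/PEG/propylene glycol 15 min pre-test at 3 doses; potency as MED, the dose (mpk, range usually 0.3–30) reaching ≥50% total activity.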

[1] = MED = dose having 50% or more total activity, read-out: Potency: minimal effective dose (MED), binned
[2] = MED = dose having 50% or more total activity, read-out: Potency: minimal effective dose (MED)

Row | SMILES | minimal effective dose [1] | AD: ADHD (probability of activity signature) | AG: analgesic (probability of activity signature) | AX: anxiolytic (probability of activity signature) | CE: cognitive enhancer (probability of activity signature) | DP: anti-depressant (probability of activity signature) | MS: mood stabilizer (probability of activity signature) | PS: anti-psychotic (probability of activity signature) | SD: sedative hypnotic (probability of activity signature) | UN: uncharacterized CNS activity (probability of activity signature) | minimal effective dose [2] | Potency: minimal effective dose (MED), binned (MED = dose having 50% or more total activity)
1 | Cc1ccc2c(c1)[C@H](C)OC[C@H]2N [Example 222] | 3 to 10 mg/kg | + (LOQ ≤ + <5%) | + (LOQ ≤ + <5%) | ++ (5% ≤ ++ <25%) | + (LOQ ≤ + <5%) | + (LOQ ≤ + <5%) | + (LOQ ≤ + <5%) | + (LOQ ≤ + <5%) | + (LOQ ≤ + <5%) | ++++ (50% ≤ ++++) | – | –
2 | Cl.NC1COCc2cc(F)ccc21 (centres unmarked) [Example 3] | – | + (LOQ ≤ + <5%) | ++ (5% ≤ ++ <25%) | ++ (5% ≤ ++ <25%) | + (LOQ ≤ + <5%) | ++ (5% ≤ ++ <25%) | + (LOQ ≤ + <5%) | + (LOQ ≤ + <5%) | ++ (5% ≤ ++ <25%) | +++ (25% ≤ +++ <50%) | 10 to 30 mg/kg | –
3 | Cc1ccc2c(c1)CO[C@@H](C)[C@H]2N [Example 189] | 10 to 30 mg/kg | + (LOQ ≤ + <5%) | ++ (5% ≤ ++ <25%) | ++ (5% ≤ ++ <25%) | ++ (5% ≤ ++ <25%) | ++ (5% ≤ ++ <25%) | + (LOQ ≤ + <5%) | ++ (5% ≤ ++ <25%) | + (LOQ ≤ + <5%) | +++ (25% ≤ +++ <50%) | – | –
4 | Cc1cccc2c1[C@H](N)[C@H](C)OC2 (single isomer, unassigned) [Example 169] | < 3 mg/kg | + (LOQ ≤ + <5%) | ++ (5% ≤ ++ <25%) | ++ (5% ≤ ++ <25%) | ++ (5% ≤ ++ <25%) | ++ (5% ≤ ++ <25%) | + (LOQ ≤ + <5%) | ++ (5% ≤ ++ <25%) | ++ (5% ≤ ++ <25%) | ++++ (50% ≤ ++++) | – | –
5 | CC[C@H]1OCc2cccc(Cl)c2[C@@H]1N.Cl (single isomer, unassigned) [Example 209] | 3 to 10 mg/kg | + (LOQ ≤ + <5%) | +++ (25% ≤ +++ <50%) | ++ (5% ≤ ++ <25%) | ++ (5% ≤ ++ <25%) | ++ (5% ≤ ++ <25%) | + (LOQ ≤ + <5%) | ++ (5% ≤ ++ <25%) | ++ (5% ≤ ++ <25%) | +++ (25% ≤ +++ <50%) | – | –
6 | CCN(C)C(=O)Oc1ccc2c(c1)[C@H](N(C)C)[C@@H](C)OC2.Cl [Example 288] | > 30 mg/kg | + (LOQ ≤ + <5%) | + (LOQ ≤ + <5%) | + (LOQ ≤ + <5%) | + (LOQ ≤ + <5%) | ++ (5% ≤ ++ <25%) | + (LOQ ≤ + <5%) | + (LOQ ≤ + <5%) | ++ (5% ≤ ++ <25%) | + (LOQ ≤ + <5%) | – | –
7 | CC[C@H]1OCc2ccc(C)cc2[C@@H]1N.Cl (relative stereo) [Example 99, trans-3-Ethyl-6-methylisochroman-4-amine hydrochloride] | – | + (LOQ ≤ + <5%) | ++ (5% ≤ ++ <25%) | +++ (25% ≤ +++ <50%) | ++ (5% ≤ ++ <25%) | ++ (5% ≤ ++ <25%) | + (LOQ ≤ + <5%) | ++ (5% ≤ ++ <25%) | + (LOQ ≤ + <5%) | +++ (25% ≤ +++ <50%) | 3 to 10 mg/kg | –
8 | Cl.NC1COCc2ccc3c(c21)C1CCC3C1 (single isomer, unassigned) [Example 163] | – | + (LOQ ≤ + <5%) | ++ (5% ≤ ++ <25%) | ++ (5% ≤ ++ <25%) | ++ (5% ≤ ++ <25%) | ++ (5% ≤ ++ <25%) | + (LOQ ≤ + <5%) | +++ (25% ≤ +++ <50%) | ++ (5% ≤ ++ <25%) | +++ (25% ≤ +++ <50%) | – | B (>3 to 10 mpk)
9 | C[C@H]1OCc2cccc(F)c2[C@@H]1N.Cl [Example 216] | 3 to 10 mg/kg | + (LOQ ≤ + <5%) | ++ (5% ≤ ++ <25%) | ++ (5% ≤ ++ <25%) | + (LOQ ≤ + <5%) | ++ (5% ≤ ++ <25%) | + (LOQ ≤ + <5%) | + (LOQ ≤ + <5%) | + (LOQ ≤ + <5%) | ++++ (50% ≤ ++++) | – | –
10 | CCc1ccc2c(c1)[C@H](N)[C@H](C)OC2.Cl [Example 219] | 3 to 10 mg/kg | + (LOQ ≤ + <5%) | ++ (5% ≤ ++ <25%) | ++ (5% ≤ ++ <25%) | ++ (5% ≤ ++ <25%) | + (LOQ ≤ + <5%) | + (LOQ ≤ + <5%) | + (LOQ ≤ + <5%) | + (LOQ ≤ + <5%) | ++++ (50% ≤ ++++) | – | –
11 | Cl.NC1COCc2ccc(-c3ccccc3)cc21 (centres unmarked) [Example 7, 6-Phenylisochroman-4-amine hydrochloride] | – | + (LOQ ≤ + <5%) | + (LOQ ≤ + <5%) | ++ (5% ≤ ++ <25%) | ++ (5% ≤ ++ <25%) | ++ (5% ≤ ++ <25%) | ++ (5% ≤ ++ <25%) | ++ (5% ≤ ++ <25%) | + (LOQ ≤ + <5%) | +++ (25% ≤ +++ <50%) | 10 to 30 mg/kg | –
